Paper PMC9359912, “Pathogenic bacteria remodel central metabolic enzyme to build a cyclopropanol warhead” (Nature Chemistry, 2022)

Molecular target: T1, BurG (Burkholderia thailandensis, UniProt Q2T3G7)
T1 construct: gene ilvC-2

NC(=O)C1=CN([C@@H]2O[C@H](COP(=O)(O)OP(=O)(O)OC[C@H]3O[C@@H](n4cnc5c(N)ncnc54)[C@H](O)[C@@H]3O)[C@@H](O)[C@H]2O)C=CC1 [NADH]
X-ray co-crystal structure, 2.05 Å: complexed between the two magnesium atoms and NADH in the active site
